Assay results: US10975142B2, “Endotrophin neutralization and use thereof” (THE BOARD OF REGENTS OF THE UNIVERSITY OF TEXAS SYSTEM, priority 2013, dated 2021)
Entries after “also recorded” stand apart in the source; their conditions may differ.

T1: ETP (Mus musculus, UniProt E9PWQ3)
T1 sequence (E9PWQ3 with tags, fused parts or gaps limits assumed): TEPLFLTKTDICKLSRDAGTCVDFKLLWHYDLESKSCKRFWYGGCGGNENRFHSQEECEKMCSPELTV


Assays:
endotrophin+-tumors [1] = assay: allografts of Ctrl- and endotrophin+-cancer cells in wild-type hosts, TZD and cisplatin; assay type: in vivo, mouse; conditions: cisplatin 1 mg/kg ip. every 5 days, TZD 20 mg/kg or ND
Experimental: FIGS. 21A-21F. TZD synergizes cisplatin sensitivity through suppression of endotrophin-mediated EMT, fibrosis and vasculature. FIGS. 21A-21B. Schematic diagram for allografts (FIG. 21A), indicating cancer cells (0.5×10^6 cells/mouse) were isolated from tumors in PyMT (Ctrl) and PyMT/endotrophin (ETP) mice and implanted into wild-type hosts. Host mice were given TZD (20 mg/kg) or ND diet at 10 days before implantation for tumor progression. Cisplatin (1 mg/kg, ip., every 5 days) was administered at 3-weeks post implantation. […] Data represent mean±SD (n=8-9/group). *p=0.05, **p=0.01 and ***p=0.001 Ctrl/ND vs. ETP/ND; ^##p=0.01 and ^###p=0.001 ETP/ND vs. ETP/TZD by unpaired student t-test. FIGS. 21C-21F. Histological analysis of tumors in allografts after cisplatin treatment. […] Vimentin staining quantification (FIG. 21D), showing decreased EMT in both Ctrl- and endotrophin^+-tumors by TZD. ***p<0.0001 and ^###p<0.0001. Quantification of perfused lectin staining (FIG. 21E), showing the increased functional blood vessels in endotrophin^+-tumors was decreased by TZD. *p=0.015, **p=0.001 and ^##p=0.0088. Masson's Trichrome C staining quantification (FIG. 21F), showing increased fibrosis in endotrophin^+-tumors was decreased by TZD. ***p<0.0001 and ^##p=0.0013. […] Statistics (*Ctrl/ND/CIS vs. Ctrl/TZD/CIS or ETP/ND/CIS; ^#ETP/ND/CIS vs. ETP/TZD/CIS) were analyzed by unpaired student t-test. […]

endotrophin+-tumors [2] = assay: allografts of tumor pieces (Ctrl-tumor, ETP+-tumor) in wild-type hosts, cisplatin; assay type: in vivo, mouse; conditions: cisplatin 1 mg/kg, ip. twice a week
Experimental: FIGS. 20A-20C. Endotrophin overexpression confers cisplatin resistance in PyMT mice. FIG. 20A. 10-weeks-aged PyMT and PyMT/endotrophin (PyMT/ETP) mice were given high dosage of cisplatin (2.5 mg/kg, ip., 2 times/week). Tumor growth was determined by caliper measurements. Data represent mean±SD (n=7-10/group). ***p<0.001, PyMT/CIS vs. PyMT/ETP/CIS by 2-way ANOVA. FIGS. 20B-20C. A piece of tumors taken from PyMT (Ctrl-tumor) and PyMT/endotrophin (ETP^+-tumor) mice were implanted into isogenic wild-type hosts. Cisplatin (1 mg/kg, ip., 2 times/week) were injected at 3-weeks post implantation for tumor progression. Tumor volume was determined by caliper measurement. […] Data represent mean±SD (n=7-8/group). *p<0.05 vs. Ctrl-tumors by 2-way ANOVA. Representative images were taken at 70-days post implantation. Scale: 10 mm.

MS-1 cells = assay: in vitro angiogenesis assay (tubule formation on Matrigel); assay type: cell-based, mouse; conditions: 10B6 10 μg/well, 3 hours
Experimental: FIGS. 17A-17B. Endotrophin effects on endothelial cell migration. FIG. 17A. in vivo Matrigel bioassays were performed as described in FIG. 6J. Matrigel plugs were analyzed by H&E and immunostaining for CD31 (endothelial cell marker). Scale bars: 200 μm (H&E), and 50 μm (CD31). FIG. 17B. in vitro Angiogenesis assay. MS-1 cells (5×10^4 cells/well) were plated in triplicate on the matrigel coated 12-well plates. Tubule formation was assessed 3 hours after incubation with conditioned media derived from H293 or H293-endotrophin overexpressing cells in the presence or absence of 10B6 (10 μg/well). Scale bars: 500 μm.
A total 300 μl/well of growth factor reduced matrigel (BD biosciences) was plated into 12 well plates. MS-1 cells (5×10^4) were seeded and images were acquired 3-4 hours after incubation with the conditioned media indicated.

ETP = target: T1, ETP; assay: in vivo Matrigel bioassay (stromal cell recruitment into plugs); conditions: ETP 100 ng/plug, antibody 20 μg/plug, 2 days after implantation
Experimental: FIGS. 7A-7I: ETP acts as a chemokine augmenting tumor growth. […] Tumor volume was determined 1 month after implantation (representative images). Data represent mean±SEM (n=5 per group). ***P<0.001, unpaired t test. (FIG. 7B) In vivo Matrigel bioassay. Matrigel (50 μl) was mixed with ETP (100 ng/plug) or PBS and implanted into WT mice in the presence of IgG, 1D11, or 10B6 (20 μg/plug). 2 days after implantation, plugs were excised and stained for FIG. 7H & FIG. 7E. Scale bars: 100 μm. (FIGS. 7C-7H) Cancer cells were plated in the bottom chamber 1 day prior to seeding MS-1 cells (5×10^5 cells/well) and macrophages (1×10^5 cells/well) atop the membrane chamber in Transwell and incubated for 18-24 hours (FIG. 7C). (FIGS. 7D, 7E, 7F, 7G) Representative images of multiple independent experiments. Scale bars: 100 μm. (FIG. 7H) Quantitation (mean±SEM; n=3 per group). ***P<0.001, […], unpaired t test. (FIG. 7I) MS-1 migration assay. MS-1 cells (5×10^5 cells/well) were plated atop the chamber in Transwell and incubated for 24 hours. Chemotaxis was set up by following cell migration from DMEM/serum-free to DMEM/2% FBS/PBS or DMEM/2% FBS/ETP protein (1 μg/well). Images are representative of multiple independent experiments. Data represent mean±SEM (n=3 per group). ***P=0.008, unpaired t test. Scale bars: 100 μm.

| Molecule | tumor growth (volume) of endotrophin+-tumors (endotrophin+-tumors [1]) | response of endotrophin+-tumors compared to control (Ctrl)-tumors (endotrophin+-tumors [2]) | vasculature structure (tubule) formation induced by conditioned media from ETP-overexpressing HEK-293T cells (MS-1 cells) | chemokine activity of ETP (stromal cell recruitment into Matrigel plugs) (ETP) |
| --- | --- | --- | --- | --- |
| N.N.[Cl][Pt][Cl] [cisplatin, cis-diammine-dichloro-platinum] | more resistant | more resistant; also recorded: increased cisplatin resistance | – | – |
| 10B6: rat anti-mouse endotrophin monoclonal antibody; light chain variable SEQ ID NO: 2, heavy chain variable SEQ ID NO: 4 (antibody, V domains shown) VH: QVQLQQSGPELAKPGSSVKISCKASGYTFTSYEMHWIKQRPGQGLEWIGYIYPESGSTGYNEKFKGKATLTVDKSSPTAYMQLSSLTPDNSAVYFCTRGLRVLGYVMDVWGHGTSVTVSS VL: DVQLTQSPSFLSASVGDRVTINCKASQNINKYLNWYQQKLGEAPKRLIYNTNNLQTGIPSRFSGSASGTDYTLTISSLHPEDFATYFCLQHSSLYTFGAGTKLELK | – | – | completely blocked | completely blocked |
